Experimental findings from patent US8993585B2, “Cyclic amine substituted pyrimidinediamines as PKC inhibitors” (Rigel Pharmaceuticals, Inc., priority 2007, dated 2015) are described below.

The IC50 is the concentration at which inhibition is half-maximal.

In one test the test system is Human primary T cells. Briefly: IL-2 ELISA, Human Primary T Cell, Anti-CD3+CD28+ (Example 3). It is filed as cell-based. The note with it: Homo sapiens, T-cell, 24 h, anti-CD3+CD28 stimulation. In a few lines: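 Human primary T cells, 100,000 per well, were pre-incubated with compound in Yssel's medium for 1 h at 37 °C. The counter-assay used 0.5 ng/ml PMA with 0.1 uM ionomycin final.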

In the next test the target is T1, PKC theta (Homo sapiens, UniProt Q04759).
T1 construct: purchased Upstate Biotechnologies, Temecula, CA 14-444
T1 sequence (Q04759 whole entry): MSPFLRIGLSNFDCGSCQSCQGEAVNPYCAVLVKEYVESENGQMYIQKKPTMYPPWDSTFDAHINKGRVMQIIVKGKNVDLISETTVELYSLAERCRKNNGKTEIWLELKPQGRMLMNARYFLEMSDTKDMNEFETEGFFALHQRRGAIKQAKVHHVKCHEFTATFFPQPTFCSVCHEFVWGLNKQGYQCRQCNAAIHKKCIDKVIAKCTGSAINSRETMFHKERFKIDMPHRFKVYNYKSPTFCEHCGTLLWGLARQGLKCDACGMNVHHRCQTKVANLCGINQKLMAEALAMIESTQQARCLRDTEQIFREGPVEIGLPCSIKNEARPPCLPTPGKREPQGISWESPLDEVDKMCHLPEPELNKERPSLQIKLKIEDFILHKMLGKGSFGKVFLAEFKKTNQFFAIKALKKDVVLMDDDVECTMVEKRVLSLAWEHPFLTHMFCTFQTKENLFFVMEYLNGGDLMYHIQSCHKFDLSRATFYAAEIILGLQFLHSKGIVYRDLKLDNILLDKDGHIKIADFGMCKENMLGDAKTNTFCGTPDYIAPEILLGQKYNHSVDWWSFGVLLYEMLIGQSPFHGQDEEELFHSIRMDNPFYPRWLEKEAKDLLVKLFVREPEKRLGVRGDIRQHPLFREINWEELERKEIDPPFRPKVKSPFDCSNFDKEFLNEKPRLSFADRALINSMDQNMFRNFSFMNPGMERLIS
Briefly: PKC assay, fluorescence polarization (Example 2), PKC theta. The note with it: 5 μM ATP. It is filed as biochemical. In outline: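 Phosphorylated peptide product detected by fluorescence polarization, with EDTA quench plus peptide tracer and antibody. Reaction in 20 mM HEPES pH 7.4, 5 mM MgCl2, 0.2 mM CaCl2, 1 mM DTT, 0.02% Brij-35, phosphatidylserine and dioleoyl-sn-glycerol, with 5 μM ATP and 5 μM peptide. Started with enzyme, 20 min at room temperature.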

Another test has as its target T2, PKC epsilon (Homo sapiens, UniProt Q02156).
T2 construct: purchased Upstate Biotechnologies, Temecula, CA 14-518
T2 sequence (Q02156 1-737): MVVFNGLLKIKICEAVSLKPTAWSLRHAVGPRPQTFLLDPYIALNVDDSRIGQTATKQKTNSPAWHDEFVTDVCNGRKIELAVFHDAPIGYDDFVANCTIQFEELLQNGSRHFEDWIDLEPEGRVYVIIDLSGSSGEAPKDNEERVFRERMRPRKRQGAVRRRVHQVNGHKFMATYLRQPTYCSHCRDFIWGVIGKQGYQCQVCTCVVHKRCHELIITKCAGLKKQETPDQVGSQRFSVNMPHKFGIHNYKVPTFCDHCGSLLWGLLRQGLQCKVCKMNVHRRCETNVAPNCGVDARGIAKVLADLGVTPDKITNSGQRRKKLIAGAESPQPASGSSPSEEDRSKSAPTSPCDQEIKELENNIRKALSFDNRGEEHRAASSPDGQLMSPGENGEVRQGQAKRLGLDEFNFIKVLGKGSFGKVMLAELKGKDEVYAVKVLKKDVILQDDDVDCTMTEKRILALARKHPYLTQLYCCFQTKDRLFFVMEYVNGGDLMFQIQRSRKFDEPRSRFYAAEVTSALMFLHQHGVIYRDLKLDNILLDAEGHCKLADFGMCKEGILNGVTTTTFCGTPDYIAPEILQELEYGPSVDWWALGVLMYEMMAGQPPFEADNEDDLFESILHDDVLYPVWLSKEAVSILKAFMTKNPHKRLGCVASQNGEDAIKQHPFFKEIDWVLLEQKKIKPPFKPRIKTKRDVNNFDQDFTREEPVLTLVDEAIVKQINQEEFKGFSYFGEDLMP
In words: PKC assay, fluorescence polarization (Example 2), PKC epsilon. The note with it: 5 μM ATP. Format: biochemical. As to the method:
The inhibition of PKC activity was measured by monitoring the production of phosphorylated peptide by fluorescence polarization at different concentrations of the inhibitor. Reactions were carried out in 96-well plate format with a total volume of 20 μL containing 20 mM HEPES, pH 7.4, 5 mM MgCl2, 0.2 mM CaCl2, 1 mM DTT, 0.02% Brij-35, 0.1 mg/mL phosphatidylserine, 0.02 mg/mL dioleoyl-sn-glycerol and 5 μM each of ATP and the peptide substrate. Compounds were first diluted serially in DMSO and then transferred to a solution containing the above concentrations of HEPES, MgCl2, CaCl2, DTT, and Brij-35 to yield 5× compound solutions in 2% DMSO, which was then added to the reaction solution. Reactions were initiated by the addition of PKC at a typical concentration as described in Table VI, and then allowed to incubate at room temperature for 20 min. At the end of this time, a combination of quench (EDTA) and detection (peptide tracer and antibody) reagents was added using the protocol of Invitrogen P2748.
A general note: Polarisation of emitted light reports the rotation of a fluorescent probe.

In the case of `CCN1C(=O)C(C)(C)Oc2cc(Nc3ncc(F)c(NC4CC(C)(C)N(C)C(C)(C)C4)n3)ccc21` [II-35], the IC50 in the test with Human primary T cells is 142 nM; on PKC theta, 8.94 nM; at PKC epsilon it was 159 nM.

As to `CN1C(C)(C)CC(Nc2nc(Nc3ccc(-c4ccoc4)c(F)c3)ncc2F)CC1(C)C` [Compound I-119], the IC50 worked out at 309 nM in the test with Human primary T cells, 55.3 nM on PKC theta and 27.8 nM on PKC epsilon.

As for `CN1C(C)(C)CC(Nc2nc(Nc3cccc(-n4cnnn4)c3)ncc2F)CC1(C)C` [Compound I-357], the figures for the IC50 in the test with Human primary T cells, at PKC theta and at PKC epsilon were 67.6 nM, 5.11 nM and 7.11 nM, respectively.

Turning to `Cc1ccc(Nc2ncc(F)c(NC3CC(C)(C)NC(C)(C)C3)n2)cc1-n1cnnn1` [Compound I-455], the results for the IC50 with Human primary T cells, at PKC theta and at PKC epsilon were 70 nM, 1.3 nM and 8 nM, respectively.

In the case of `CN1C(C)(C)CC(Nc2nc(Nc3ccc(N4CCN(S(C)(=O)=O)CC4)c(Cl)c3)ncc2C#N)CC1(C)C` [Compound I-102], the figures for the half-inhibitory concentration (IC50) in the test with Human primary T cells, at PKC theta and on PKC epsilon were 217 nM, 12.6 nM and 218 nM, respectively.

For the compound `COc1ccc(Nc2ncc(C#N)c(NC3CC(C)(C)N(C)C(C)(C)C3)n2)cc1-n1c(C)ccc1C` [Compound I-376], the IC50 in the test on Human primary T cells was 260 nM; on PKC theta, 0.4 nM; on PKC epsilon, 935 nM.

Take `Cc1ccc(Nc2ncc(F)c(NC3CC(C)(C)N(C)C(C)(C)C3)n2)cc1C#N` [Compound I-142]: the IC50 was found to be 80.7 nM in the test with Human primary T cells, 2.92 nM on PKC theta and 31 nM on PKC epsilon.

Regarding `CCN1C(=O)C(F)(F)Oc2cc(Nc3ncc(F)c(NC4CC(C)(C)N(C)C(C)(C)C4)n3)ccc21` [II-31], the IC50 in the test with Human primary T cells turned out to be 26.4 nM; at PKC theta, 1.35 nM; at PKC epsilon, 27.1 nM.

As to `CN1C(C)(C)CC(Nc2nc(Nc3ccc(N4CCN(S(C)(=O)=O)CC4)c(Cl)c3)ncc2C(F)(F)F)CC1(C)C` [Compound I-92], the values for the IC50 with Human primary T cells, at PKC theta and at PKC epsilon were 208 nM, 4.56 nM and 271 nM, respectively.

With `CN1C(=O)C(C)(C)Oc2cc(Nc3ncc(F)c(NC4CC(C)(C)N(C)C(C)(C)C4)n3)ccc21` [II-34], the IC50 stood at 224 nM in the test with Human primary T cells, 15.7 nM at PKC theta and 102 nM at PKC epsilon.

On to `CC1(C)CC(Nc2nc(Nc3cc(OCC(F)(F)F)cc(OCC(F)(F)F)c3)ncc2F)CC(C)(C)N1` [Compound I-375], for which the IC50 in the test with Human primary T cells turned out to be 350 nM; on PKC theta it was 1.2 nM; at PKC epsilon, 200 nM.

With `COc1cc(Nc2ncc(C#N)c(NC3CC(C)(C)N(C)C(C)(C)C3)n2)cc(-n2nnnc2C)c1` [Compound I-365], the values for the IC50 in the test with Human primary T cells, at PKC theta and on PKC epsilon were 56.6 nM, 0.62 nM and 7.34 nM, respectively.

For `CCN1C(=O)C(F)(F)Oc2cc(Nc3ncc(F)c(NC4CC(C)(C)N(C)C(C)(C)C4)n3)cnc21` [II-27], the IC50 with Human primary T cells came to 210 nM; on PKC theta, 3.88 nM; at PKC epsilon it was 65.8 nM.

For `CN1C(C)(C)CC(Nc2nc(Nc3ccc(N4CCCC4)c(C(F)(F)F)c3)ncc2F)CC1(C)C` [Compound I-232], the IC50 with Human primary T cells turned out to be 894 nM; at PKC theta it was 63.4 nM; on PKC epsilon, 42 nM.

Take `CN1C(C)(C)CC(Nc2nc(Nc3cc(Cl)cc(Cl)c3)ncc2F)CC1(C)C` [Compound I-103]: the IC50 with Human primary T cells is 129 nM; at PKC theta, 50.4 nM; at PKC epsilon, 413 nM.

On to `COc1cc(Nc2ncc(C(F)(F)F)c(NC3CC(C)(C)N(C)C(C)(C)C3)n2)cc(OC)c1` [Compound I-363], for which the IC50 was determined as 233 nM in the test with Human primary T cells, 4.17 nM on PKC theta and 54.8 nM on PKC epsilon.

As for `CC1(C)CC(Nc2nc(Nc3ccc4c(c3)OCC(=O)N4CCF)ncc2C#N)CC(C)(C)N1` [II-171], the IC50 in the test with Human primary T cells was found to be 260 nM; at PKC theta, 2.4 nM; on PKC epsilon, 775 nM.

For `CCOc1ccc(Nc2ncc(C(N)=O)c(NC3CC(C)(C)N(C)C(C)(C)C3)n2)cc1-n1nnnc1CC` [Compound I-420], the IC50 with Human primary T cells was 250 nM; on PKC theta it was 3.2 nM; on PKC epsilon it was 115 nM.

Turning to `COc1ccc(Nc2ncc(C(F)(F)F)c(NC3CC(C)(C)N(C)C(C)(C)C3)n2)cc1OC(F)F` [Compound I-350], the results for the IC50 in the test on Human primary T cells, at PKC theta and on PKC epsilon were 161 nM, 3.41 nM and 589 nM, respectively.

Turning to `CN1CCN(c2ccc(Nc3ncc(C#N)c(NC4CC(C)(C)N(C)C(C)(C)C4)n3)cc2Cl)CC1` [Compound I-101], the IC50 in the test on Human primary T cells came out at 94.6 nM; at PKC theta, 5.51 nM; at PKC epsilon, 131 nM.

For `Cc1ccc(Nc2ncc(F)c(NC3CC(C)(C)N(C)C(C)(C)C3)n2)cc1-c1ccoc1` [Compound I-188], the IC50 in the test with Human primary T cells is 178 nM; on PKC theta it was 4.74 nM; on PKC epsilon, 36.7 nM.

As to `COc1ccc(Nc2ncc(C#N)c(NC3CC(C)(C)N(C)C(C)(C)C3)n2)cc1OC(F)F` [Compound I-366], the values for the IC50 in the test on Human primary T cells, on PKC theta and on PKC epsilon were 122 nM, 1.71 nM and 89.6 nM, respectively.

Take `CN1C(C)(C)CC(Nc2nc(Nc3ccc(-n4cccc4)c(C#N)c3)ncc2F)CC1(C)C` [Compound I-148]: the concentration for half-maximal inhibition (IC50) worked out at 223 nM with Human primary T cells, 13.5 nM at PKC theta and 150 nM on PKC epsilon.

`CCN1C(=O)C(C)(C)Oc2cc(Nc3ncc(C)c(NC4CC(C)(C)N(C)C(C)(C)C4)n3)ccc21` [II-145]: the IC50 with Human primary T cells stood at 370 nM; at PKC theta it was 28.1 nM; at PKC epsilon, 2690 nM.

For the compound `CN1C(C)(C)CC(Nc2nc(Nc3cccc(OC(F)(F)F)c3)ncc2F)CC1(C)C` [Compound I-223], the IC50 was 184 nM in the test on Human primary T cells, 31.7 nM at PKC theta and 119 nM at PKC epsilon.

As for `CSc1nnnn1-c1cccc(Nc2ncc(C(N)=O)c(NC3CC(C)(C)N(C)C(C)(C)C3)n2)c1` [Compound I-456], the IC50 with Human primary T cells was found to be 350 nM; on PKC theta it was 6.3 nM; at PKC epsilon, 49 nM.

Regarding `CN1C(C)(C)CC(Nc2nc(Nc3ccc4c(c3)oc(=O)n4CC3CC3)ncc2F)CC1(C)C` [II-163], the results for the IC50 in the test on Human primary T cells, at PKC theta and on PKC epsilon were 280 nM, 6.1 nM and 140 nM, respectively.
